Results on one molecule are retold here after paper PMC6255700, “A novel glycosyltransferase catalyses the transfer of glucose to glucosylated anthocyanins in purple sweet potato” (Journal of Experimental Botany, 2018).

Assay [1] addresses T1, At3GGT (UGT79B1, AtA3G2XylT) (Arabidopsis thaliana, UniProt Q9LVW3).
T1 construct: gene A3G2XYLT; full length, C-terminal His6, pYES2 in Saccharomyces cerevisiae BY4742, crude yeast extract
T1 sequence (Q9LVW3 1-468): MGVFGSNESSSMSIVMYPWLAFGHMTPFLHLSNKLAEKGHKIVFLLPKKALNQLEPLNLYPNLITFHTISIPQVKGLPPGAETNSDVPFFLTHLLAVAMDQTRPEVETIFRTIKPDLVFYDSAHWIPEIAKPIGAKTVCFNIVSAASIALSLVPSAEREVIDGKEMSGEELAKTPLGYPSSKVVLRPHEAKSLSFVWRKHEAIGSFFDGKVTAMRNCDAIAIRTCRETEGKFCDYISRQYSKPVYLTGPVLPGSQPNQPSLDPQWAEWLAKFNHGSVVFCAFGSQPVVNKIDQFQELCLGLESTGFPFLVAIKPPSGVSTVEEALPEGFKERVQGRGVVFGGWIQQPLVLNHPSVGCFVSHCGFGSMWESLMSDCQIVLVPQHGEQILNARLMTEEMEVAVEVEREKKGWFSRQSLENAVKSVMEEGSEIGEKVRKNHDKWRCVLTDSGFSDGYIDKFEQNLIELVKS
Kind of assay: HPLC / LC-MS glycosyltransferase assay with crude recombinant yeast extract. The class given is cell-based. Particulars: acceptor; donor UDP-xylose; 100 mM phosphate pH 7.0, 37 °C, 2 h.

In a further assay the target is T2, Ib3GGT (IbA3G2GluT) (Ipomoea batatas, UniProt A1YM58).
T2 construct: gene GT
T2 sequence (A1YM58 entry or part of it): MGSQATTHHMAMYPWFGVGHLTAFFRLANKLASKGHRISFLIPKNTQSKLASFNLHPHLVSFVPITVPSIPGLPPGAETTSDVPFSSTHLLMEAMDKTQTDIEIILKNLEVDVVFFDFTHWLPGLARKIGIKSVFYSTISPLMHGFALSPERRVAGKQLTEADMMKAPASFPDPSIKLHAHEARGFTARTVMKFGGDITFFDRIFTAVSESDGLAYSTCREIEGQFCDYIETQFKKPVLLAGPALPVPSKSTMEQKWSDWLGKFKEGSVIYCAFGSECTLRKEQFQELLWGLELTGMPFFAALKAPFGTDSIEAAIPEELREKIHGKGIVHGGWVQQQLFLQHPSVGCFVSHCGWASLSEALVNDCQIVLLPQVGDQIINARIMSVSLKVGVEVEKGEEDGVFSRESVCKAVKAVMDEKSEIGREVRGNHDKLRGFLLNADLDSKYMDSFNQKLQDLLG
The assay is described as above. The class given is cell-based. Particulars: acceptor; donor 1 mM UDP-glucose; 100 mM phosphate pH 7.0, 37 °C, 2 h.

Turning to `OC[C@H]1O[C@@H](Oc2cc3c(O)cc(O)cc3[o+]c2-c2ccc(O)c(O)c2)[C@H](O)[C@@H](O)[C@@H]1O` [cyanidin 3-O-glucoside], the results for the “HPLC / LC-MS glycosyltransferase assay with crude recombinant yeast extract” value (in assay [1]; at Ib3GGT (IbA3G2GluT)) were “using only UDP-xylose as the sugar donor to catalyse cyanidin 3-O-glucoside into cyanidin 3-O-glucoside-2″-O-xyloside” and “The recombinant Ib3GGT protein only catalysed the conversion of cyanidin 3-O-glucoside into cyanidin 3-O-sophoroside”, respectively.
